Results from patent US20220017572A1, “GEMINOID LIPOPEPTIDE COMPOUNDS AND THEIR USES” (Erasmus University Medical Center Rotterdam, priority 2016, published 2022).
Residues, ends and D or L forms follow the SMILES beside them.

Assays:
dengue 2 protease [1] = target: T1, dengue 2 protease (Dengue virus type 2, UniProt P14340); experiment: Dengue 2 protease inhibition, hydrolysis of Z-RR-MCA; assay type: biochemical, dengue 2 virus; design: Activity with inhibitors: unit not given here
T1 construct: The active site of the dengue protease is in the N-terminal part of NS3
Method: The active site of the dengue protease is in the N-terminal part of NS3 which is also a serine protease with catalytic triad Asp79-His51-Ser135, but requires […] (CF40) for activity; the inhibition reported here was studied on a […] (CF40-GGGGSGGGG-NS3; (SEQ ID NO:54)) which has also been structurally characterized [Erbel et al., 2006; Luo et al. 2008].
(§1) Substrate was added in a concentration 10 times the Km, and the inhibitor compounds of type C (C16-KGnK-C16, C16-KAnK-C16, and C16-RAnR-C16) were added in increasing concentrations (1.0, 5.0, 10.0, 20.0, 40.0 μL) from a stock solution of 2 mg in 1 mL DMSO. The residual activity was measured in a Hitachi F2500 spectrofluorimeter, and plots were fitted using the Grafit® software (Erithracus Software, Horley, Surrey, UK). All the assays were calculated by the Morrison equation for competitive inhibition (eq. 1, [Morrison, 1969]). The amount of substrate used for the tight binding titration experiments follow all the requirements, where [S]<<Km for all enzymes, so the Kiapp=Ki.
(§2) Range of Proteases Inhibited by Geminoids, Determination of Ki with Z-RR-MCA (Dengue 2 Protease) and Ac-RVRR-MCA (Furin) (SEQ ID NO:60).

dengue 2 protease [2] = target: T1, dengue 2 protease; experiment: Dengue 2 protease inhibition in presence of Triton X-100 (detergent test, Nature Protocol); assay type: biochemical, dengue 2 virus; details: 0.05% Triton X-100; for Activity with 0.05% Triton: initial activity in UAF/min
Excerpt: A further investigation of the interactions of the geminoid inhibitors with biological membranes and with membrane-bound proteases is needed. […] The preparation and tests of peptides symmetrically, asymmetrically and singly alkylated with saturated, short (C6), and unsaturated (C18:1) alkyl tails are in progress.

dengue 2 protease [3] = target: T1, dengue 2 protease; experiment: Dengue 2 protease inhibition, hydrolysis of Z-RR-MCA; assay type: biochemical, dengue 2 virus; design: unit not given here; details: 10 μM Z-RR-MCA, pH 9.0, 37° C., initial activity in UAF/min
trypsin = target: T2, trypsin (Bos taurus, UniProt P00760); experiment: Trypsin inhibition, fluorimetric enzyme assay; assay type: biochemical
T2 construct: gene PRSS1
T2 sequence (P00760 24-246): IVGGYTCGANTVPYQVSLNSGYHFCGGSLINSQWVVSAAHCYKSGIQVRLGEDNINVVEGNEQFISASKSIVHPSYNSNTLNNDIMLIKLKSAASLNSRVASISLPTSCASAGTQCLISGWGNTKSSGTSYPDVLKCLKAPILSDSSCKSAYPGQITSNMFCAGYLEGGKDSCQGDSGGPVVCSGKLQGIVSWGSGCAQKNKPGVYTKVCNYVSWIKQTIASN
Method: as §1, with “The enzyme was dissolved in 1 mL MES buffer (10 mM), 1 mM CaCl2, pH 7.0 at 36.5° C. Substrate” for “Substrate”
The first group of gemini-like peptide amphiphiles to be screened was that of C16-K(G or A)nK-C16 (compound type C, with R1=n-C15H31, R2=n-C16H33). […] The results of the Ki determination for trypsin, dengue 2 protease, and human furin are given in Table 1A; some general data for the inhibition by this type of compounds are given in Table 1B. For most compounds in Table 1 the Ki could be derived from competitive inhibition experiments. Judging from the Ki values with the relatively simple substrate Z-RR-MCA, the best inhibitors for dengue 2 protease contain alanine (A) rather than glycine (G).

human furin = human furin (Homo sapiens, UniProt P09958); experiment: Human furin inhibition, hydrolysis of Ac-RVRR-MCA; assay type: biochemical; details: 36.5° C.
Method: as §1, with “The enzyme was dissolved in 1 mL MES buffer (10 mM), 1 mM CaCl2, pH 7.0 at 36.5° C. Substrate” for “Substrate”
However, for furin we used a correction of Ki app, where [S]˜Km (eq. 2).
as §2

thrombin = thrombin (Homo sapiens, UniProt P00734); experiment: Thrombin inhibition, fluorimetric enzyme assay; assay type: biochemical; details: 36.5° C., read-out: Residual Activity (%) Thrombin
Method: as §1, with “The enzyme was dissolved in 1 mL MES buffer (10 mM), 1 mM CaCl2, pH 7.0 at 36.5° C. Substrate” for “Substrate”, “Kiapp=Ki. […]” for “Kiapp=Ki.”

DENV2 protease replicon = DENV2 protease replicon assay; assay type: cell-based; details: lowest concentration with observed activity in replicon assay
DENV2 protease = target: T3, DENV2 protease (Dengue virus type 2, UniProt P14340); experiment: DENV2 protease biochemical assay; details: 50 μM inhibitor
T3 construct: The active site of the dengue protease is in the N-terminal part of NS3
T3 sequence (P14340 1476-1653): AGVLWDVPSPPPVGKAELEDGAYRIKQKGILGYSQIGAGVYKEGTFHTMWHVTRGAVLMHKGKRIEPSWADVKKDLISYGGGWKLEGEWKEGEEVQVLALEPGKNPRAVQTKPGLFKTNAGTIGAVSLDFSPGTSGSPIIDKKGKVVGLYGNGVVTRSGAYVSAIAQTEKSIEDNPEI
T3 sequence (P14340 1398-1437): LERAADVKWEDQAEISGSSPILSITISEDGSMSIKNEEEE

T1 sequence (P14340 1476-1653): as the sequence (P14340 1476-1653) above
human furin, sequence (P09958 108-794): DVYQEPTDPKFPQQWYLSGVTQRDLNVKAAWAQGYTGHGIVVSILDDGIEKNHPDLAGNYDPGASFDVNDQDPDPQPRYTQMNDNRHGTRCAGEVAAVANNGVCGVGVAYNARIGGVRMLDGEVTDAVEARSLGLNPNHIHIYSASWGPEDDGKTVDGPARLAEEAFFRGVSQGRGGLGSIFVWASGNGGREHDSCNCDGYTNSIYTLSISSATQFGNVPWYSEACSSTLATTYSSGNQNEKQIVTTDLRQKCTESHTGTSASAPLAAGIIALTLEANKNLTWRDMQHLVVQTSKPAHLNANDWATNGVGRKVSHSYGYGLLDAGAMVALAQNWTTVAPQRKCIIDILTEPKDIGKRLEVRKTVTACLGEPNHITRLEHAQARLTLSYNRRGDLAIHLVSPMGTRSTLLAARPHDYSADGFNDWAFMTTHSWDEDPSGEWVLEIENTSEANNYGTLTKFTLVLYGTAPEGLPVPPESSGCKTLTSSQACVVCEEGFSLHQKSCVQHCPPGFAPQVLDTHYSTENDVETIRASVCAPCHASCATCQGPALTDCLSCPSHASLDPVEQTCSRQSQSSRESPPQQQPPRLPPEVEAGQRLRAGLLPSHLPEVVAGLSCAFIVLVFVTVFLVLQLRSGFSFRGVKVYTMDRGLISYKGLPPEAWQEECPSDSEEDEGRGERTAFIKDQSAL

CCCCCCCCCCCCNC(=O)[C@H](CCCCN)NC(=O)[C@H](C)NC(=O)[C@H](C)NC(=O)[C@H](CCCCN)NC(=O)CCCCCCCCCCC [C12KA2KC12, n-C11H23C(O)-Lys-(Ala)2-Lys-(n-C12H25).2TFA] (HELM PEPTIDE1{[CCCCCCCCCCCC(=O)[*:2]].K.A.A.K.[CCCCCCCCCCCCN[*:1]]}$$$$V2.0)
Ki (dengue 2 protease [1]): 11600 nM
% recovery in presence of Triton (dengue 2 protease [2]; 20 μM of inhibitor): 95%
Activity with 0.05% Triton (dengue 2 protease [2]; 20 μM of inhibitor): 216
Activity with inhibitors (dengue 2 protease [3]; 20 μM of inhibitor): 5

CCCCCCCCCCCCNC(=O)[C@H](CCCCN)NC(=O)[C@H](CCCCN)NC(=O)CCCCCCCCCCC [C12KKC12, n-C11H23C(O)-Lys-Lys-(n-C12H25).2TFA]
Ki (dengue 2 protease [1]): 132000 nM
% recovery in presence of Triton (dengue 2 protease [2]; 30 μM of inhibitor): 82%
Activity with 0.05% Triton (dengue 2 protease [2]; 30 μM of inhibitor): 180
Activity with inhibitors (dengue 2 protease [3]; 30 μM of inhibitor): 0

CCCCCCCCCCCCCCCCNC(=O)[C@H](CCCCN)NC(=O)CNC(=O)[C@H](CCCCN)NC(=O)CCCCCCCCCCCCCCC [C16-KGK-C16, C15H31CO-KGK-NH—C16H33]
Ki (trypsin): 41600 nM
remaining activity at 15 µM (trypsin; 15 μM inhibitor, 36.5° C., read-out: Residual Activity (%) Trypsin): 76%
remaining activity at 55 µM (trypsin; 55 μM inhibitor, 36.5° C., read-out: Residual Activity (%) Trypsin): 40%
remaining activity at 85 µM (trypsin; 85 μM inhibitor, 36.5° C., read-out: Residual Activity (%) Trypsin): 24%
Ki (dengue 2 protease [1]): 1560 nM
activity at 5 µM (dengue 2 protease [1]; 5 μM inhibitor, 36.5° C.): 75%
activity at 10 µM (dengue 2 protease [1]; 10 μM inhibitor, 36.5° C.): 54%
activity at 15 µM (dengue 2 protease [1]; 15 μM inhibitor, 36.5° C.): 40%
activity at 20 µM (dengue 2 protease [1]; 20 μM inhibitor, 36.5° C.): 29%
Activity with inhibitors (dengue 2 protease [1]; 25 μM of inhibitor, 10 μM Z-RR-MCA, pH 9.0, 37° C., initial activity in UAF/min): 50
activity at 40 µM (dengue 2 protease [1]; 40 μM inhibitor, 36.5° C.): 2%
activity at 5 µM (human furin; 5 μM inhibitor): 53%
activity at 10 µM (human furin; 10 μM inhibitor): 18%
activity at 15 µM (human furin; 15 μM inhibitor): 7%
activity at 20 µM (human furin; 20 μM inhibitor): 4%
activity at 40 µM (human furin; 40 μM inhibitor): 0%
remaining activity at 15 µM (thrombin; 15 μM inhibitor): 75%
remaining activity at 55 µM (thrombin; 55 μM inhibitor): 61%
remaining activity at 85 µM (thrombin; 85 μM inhibitor): 40%
% recovery in presence of Triton (dengue 2 protease [2]; 25 μM of inhibitor): 48%
Activity with 0.05% Triton (dengue 2 protease [2]; 25 μM of inhibitor): 90
Replicon activity [μM] (1) (DENV2 protease replicon): 1.0 µM
inhibition at 50 µM (DENV2 protease): 103%

CCCCCCCCCCCCCCCCNC(=O)[C@H](CCCNC(=N)N)NC(=O)[C@H](C)NC(=O)[C@H](C)NC(=O)[C@H](CCCNC(=N)N)NC(=O)CCCCCCCCCCCCCCC [C16RA2RC16, n-C15H31C(O)-Arg-(Ala)2-Arg-(n-C16H33).2TFA] (HELM PEPTIDE1{[CCCCCCCCCCCCCCCC(=O)[*:2]].R.A.A.R.[CCCCCCCCCCCCCCCCN[*:1]]}$$$$V2.0)
Ki (dengue 2 protease [1]): 2100 nM
% recovery in presence of Triton (dengue 2 protease [2]; 30 μM of inhibitor): 61%
Activity with 0.05% Triton (dengue 2 protease [2]; 30 μM of inhibitor): 128
Activity with inhibitors (dengue 2 protease [3]; 30 μM of inhibitor): 0

CCCCCCCCCCCCCCCCNC(=O)[C@H](CCCNC(=N)N)NC(=O)[C@H](C)NC(=O)[C@H](C)NC(=O)[C@H](C)NC(=O)[C@H](C)NC(=O)[C@H](CCCNC(=N)N)NC(=O)CCCCCCCCCCCCCCC [C16RA4RC16, n-C15H31C(O)-Arg-(la)4-Arg-(n-C16H33).2TFA] (HELM PEPTIDE1{[CCCCCCCCCCCCCCCC(=O)[*:2]].R.A.A.A.A.R.[CCCCCCCCCCCCCCCCN[*:1]]}$$$$V2.0)
Ki (dengue 2 protease [1]): 1400 nM
% recovery in presence of Triton (dengue 2 protease [2]; 20 μM of inhibitor): 68%
Activity with 0.05% Triton (dengue 2 protease [2]; 20 μM of inhibitor): 164
Activity with inhibitors (dengue 2 protease [3]; 20 μM of inhibitor): 22

CCCCCCCCCCCCCCCCNC(=O)[C@H](CCCNC(=N)N)NC(=O)[C@H](CCCNC(=N)N)NC(=O)CCCCCCCCCCCCCCC [C16RRC16, n-C15H31C(O)-Arg-Arg-(n-C16H33).2TFA]
Ki (dengue 2 protease [1]): 800 nM
% recovery in presence of Triton (dengue 2 protease [2]; 20 μM of inhibitor): 74%
Activity with 0.05% Triton (dengue 2 protease [2]; 20 μM of inhibitor): 148
Activity with inhibitors (dengue 2 protease [3]; 20 μM of inhibitor): 48
